Results reported in US9375496B2, “Halogenated compounds for cancer imaging and treatment and methods for their use” (The University of British Columbia, priority 2013, dated 2016).

Assays:
[1] = target: T1, glucocorticoid receptor (GR) (Homo sapiens, UniProt P04150); assay: GRE-luciferase reporter assay in LNCaP cells cotransfected with full-length human GR; format: cell-based; settings: 1.9 μM 8d, 10 nM dexamethasone, 48 h, LNCaP cells (FIG. 2C)
T1 construct: expression plasmids for full-length human GR; expressed in transfected cells; host or cells: LNCaP
T1 sequence (P04150 1-777): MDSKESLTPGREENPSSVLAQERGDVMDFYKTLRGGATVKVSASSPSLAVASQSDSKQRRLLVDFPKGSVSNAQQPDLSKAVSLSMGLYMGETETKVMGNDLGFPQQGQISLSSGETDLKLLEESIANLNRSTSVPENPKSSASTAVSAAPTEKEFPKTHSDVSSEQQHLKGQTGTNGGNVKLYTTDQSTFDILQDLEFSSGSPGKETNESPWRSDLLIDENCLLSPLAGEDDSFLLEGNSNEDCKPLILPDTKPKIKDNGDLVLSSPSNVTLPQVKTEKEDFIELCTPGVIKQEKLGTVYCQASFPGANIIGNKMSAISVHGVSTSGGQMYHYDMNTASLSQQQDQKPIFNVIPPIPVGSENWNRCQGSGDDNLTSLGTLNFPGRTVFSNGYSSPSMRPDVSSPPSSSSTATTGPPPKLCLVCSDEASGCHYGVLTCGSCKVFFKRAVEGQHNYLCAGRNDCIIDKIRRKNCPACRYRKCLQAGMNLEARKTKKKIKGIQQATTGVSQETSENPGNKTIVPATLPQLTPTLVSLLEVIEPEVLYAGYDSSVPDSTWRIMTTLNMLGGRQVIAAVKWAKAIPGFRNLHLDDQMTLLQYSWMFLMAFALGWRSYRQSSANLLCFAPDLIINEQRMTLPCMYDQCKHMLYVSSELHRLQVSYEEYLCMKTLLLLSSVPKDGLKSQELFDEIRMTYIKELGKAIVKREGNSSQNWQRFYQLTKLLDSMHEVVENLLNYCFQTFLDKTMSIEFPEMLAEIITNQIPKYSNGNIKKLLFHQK
Description: To assess specificity for the AR, parallel experiments were performed in LNCaP cells with endogenous AR and ectopic expression of other closely related human hormone receptors such as the progesterone receptor-beta (PRβ), glucocorticoid receptor (GR) and estrogen receptor-α (ER).

AR = target: T2, AR (Homo sapiens, UniProt P10275, T878A); assay: PSA(6.1 kb)-luciferase reporter assay in LNCaP cells (androgen-induced AR transcriptional activity); format: cell-based
T2 construct: LNCaP cells with endogenous AR; endogenous in cells; host or cells: LNCaP
T2 sequence (P10275 1-920 T878A): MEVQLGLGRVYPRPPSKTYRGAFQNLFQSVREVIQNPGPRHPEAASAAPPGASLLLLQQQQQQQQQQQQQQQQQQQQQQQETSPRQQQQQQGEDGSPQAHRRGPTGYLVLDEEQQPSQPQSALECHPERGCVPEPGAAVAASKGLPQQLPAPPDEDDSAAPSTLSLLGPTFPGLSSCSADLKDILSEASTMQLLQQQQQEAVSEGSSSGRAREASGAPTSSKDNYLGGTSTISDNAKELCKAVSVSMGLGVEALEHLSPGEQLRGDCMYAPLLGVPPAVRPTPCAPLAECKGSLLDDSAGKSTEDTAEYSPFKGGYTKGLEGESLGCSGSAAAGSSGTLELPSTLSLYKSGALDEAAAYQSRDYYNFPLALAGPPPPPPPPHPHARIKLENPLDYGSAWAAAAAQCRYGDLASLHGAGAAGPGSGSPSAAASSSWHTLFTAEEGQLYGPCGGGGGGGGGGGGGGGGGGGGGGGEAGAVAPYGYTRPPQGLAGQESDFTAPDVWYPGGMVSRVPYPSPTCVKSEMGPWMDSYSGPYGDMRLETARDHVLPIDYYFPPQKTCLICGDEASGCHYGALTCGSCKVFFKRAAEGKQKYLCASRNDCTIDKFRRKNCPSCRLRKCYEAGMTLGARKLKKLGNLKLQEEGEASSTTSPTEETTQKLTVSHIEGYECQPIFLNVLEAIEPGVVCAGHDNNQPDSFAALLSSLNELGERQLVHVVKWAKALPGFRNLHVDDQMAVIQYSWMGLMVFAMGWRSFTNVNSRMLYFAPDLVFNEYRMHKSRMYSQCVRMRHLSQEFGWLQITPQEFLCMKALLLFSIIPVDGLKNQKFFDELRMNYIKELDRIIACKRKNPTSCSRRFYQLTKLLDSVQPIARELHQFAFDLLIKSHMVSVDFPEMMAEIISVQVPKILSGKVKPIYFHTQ
Description: The PSA-luciferase (6.1 kb) reporter contains functional AREs to which AR binds in response to androgen to induce luciferase activity. LNCaP cells were transfected with the PSA(6.1 kb)-luciferase reporter for 24 h, and then treated with indicated concentration of 8d (also referred as EPI-iodide or iodinated EPI) with synthetic androgen, R1881 (1 nM) for 24 h. After 24 h of incubation with R1881, the cells were harvested, and relative luciferase activities were determined (FIG. 1A). To determine the IC50, treatments were normalized to the predicted maximal activity induction (in the absence of test compounds, vehicle only) (FIG. 1B).
To measure effect on AR, after the LNCaP cells were transfected with the PSA(6.1 kb)-luciferase reporter for 24 h, they were then treated with DMSO, 5 μM MDV3100, 25 μM Z (also referred to as EPI-002 or EPI), or 1.9 μM 8d with or without 1 nM R1881 for 24 h (FIG. 2A).
LNCaP cells were transiently transfected with PSA (6.1 kb)-luciferase for 24 h prior to pre-treatment with compounds of the invention (e.g., compounds 9d, 10d, 11d) ranging in concentration from 62.5 ng/ml to 1.5 ug/ml for 1 hour before the addition of vehicle, or synthetic androgen, R1881 (1 nM) to induce luciferase production. After 24 h of incubation with R1881, the cells were harvested, and relative luciferase activities were determined. To determine the IC50, treatments were normalized to the predicted maximal activity induction (in the absence of test compounds, vehicle only) (FIG. 1B).

- GR activity (GRE-luciferase) [1]: not inhibited
- androgen-induced PSA luciferase activity (AR; 1.9 μM 8d, 1 nM R1881, 24 h, LNCaP cells (FIG. 2A)): strongly inhibited
- IC50 (AR; LNCaP cells, PSA(6.1 kb)-luciferase, R1881 1 nM 24 h, representative experiment, read-out: IC50 for inhibition of AR transcriptional activity): 1.17 ± 0.22 µM
Compound: CC(C)(c1ccc(OC[C@H](O)CO)cc1)c1ccc(OC[C@H](O)CCl)c(I)c1 [Compound 8d, (R)-3-(4-(2-(4-((S)-3-chloro-2-hydroxypropoxy)-3-iodophenyl)propan-2-yl)phenoxy)propane-1,2-diol]
